What was measured:
[1] = tested on: severe bilateral leg lymphedema; experiment: Observation of leg lymphedema in a Hodgkin lymphoma patient in a phase II clinical trial; format: in vivo, human; conditions: one Hodgkin lymphoma patient, 800 mg/die, lymphedema from post-radiotherapy compressive lymphatic obstruction
Description: In this patient, lymphedema was due a compressive lymphatic obstruction related to post-radiotherapy sequelae.

[2] = tested on: tail lymphedema in C57BL/6 mice; experiment: Mouse tail model of lymphedema; format: in vivo; conditions: 60 mg/kg/die days 5 to 9 and 12 to 16
Experimental: Six- to eight-wk-old female C57BL/6 mice with body weight of 20 to 25 g, were purchased from Charles River (Milano, Italy, EU). Mice were housed under standard laboratory conditions according to the Applicant's institutional guidelines. Animal experiments were performed according to the Italian laws (Law Decree 116/92 and following additions), which enforce the EU […] Directive, and were approved by the institutional Ethical Committee for Animal Experimentation.
To create lymphedema, a circumferential incision was made through the dermis close to the tail base to sever the dermal lymphatic vessels. The edges of this incision were then pushed apart, thereby severing the deeper draining lymphatics, preventing superficial bleeding, and creating a 2-3 mm gap to delay wound closure.
Sorafenib dosing used in mice experiments is roughly equivalent to a 300 mg daily dosing in humans.
Mice were than randomly assigned to receive two cycles of sorafenib (60 mg/kg/die) from days 5 to 9 and 12 to 16 or control vehicle.

[3] = tested on: vascular permeability in mouse tail; experiment: Miles vascular permeability assay (Evans blue) in mice with surgically induced tail lymphedema; format: in vivo
Experimental: A Miles vascular permeability assay using intrasplenic injection of the blue dye Evans blue was perfomed in untreated and sorafenib-treated mice bearing a surgical-induced tail lymphedema.
Six- to eight-wk-old female C57BL/6 mice with body weight of 20 to 25 g, were used in this experiment. Tail lymphedema was generated by a circumferential incision through the dermis close to the tail base, as described above. […] On day 16, mice received the last dose of sorafenib and 2 hrs later were injected through the spleen with 0.1 ml of 1% Evan's blue in PBS. After 2 h, the mice were exsanguinated under anesthesia, and were perfused with heparin in PBS until lungs and livers were blanched. The distal portion of the tail was then removed and placed in formamide at 37° C. overnight to extract Evan's blue dye. […]

[4] = tested on: acquired arm lymphedema; experiment: Pilot clinical study in breast cancer patients with acquired arm lymphedema; format: in vivo, human; conditions: oral 200 mg daily, up to 8 weeks, ten patients
Description: To further evaluate in a clinical setting the anti-lymphedema activity of multi-kinase inhibitor sorafenib, the Applicants performed a pilot study on a compassionate need basis to evaluate the toxicity and the anti-lymphedema effects of multi-kinase inhibitor sorafenib in consenting breast cancer patients with acquired arm lymphedema occurring following surgical dissection of, and/or radiotherapy on axillary lymphnodes. No other treatment options of proven efficacy was available for these patients.
Patients were administered with oral sorafenib at a dose of 200 mg daily.
Therapy was given for a maximum of 8 weeks or until lymphedema progression or appearance of clinical significant toxicity probably related to multi-kinase inhibitor sorafenib.
Within a two-month period of time ten breast cancer patients with acquired lymphedema of the arm were treated with multi-kinase inhibitor sorafenib.
At the end of treatment, the efficacy of multi-kinase inhibitor sorafenib was evaluated as percentage reduction of total arm circumference as compared with pre-treatment values. The median reduction of total arm circumference was 60% (range, 30 to 100). Lymphedema reduction was associated with a 5-10% reduction of body weight.

## CNC(=O)c1cc(Oc2ccc(NC(=O)Nc3ccc(Cl)c(C(F)(F)F)c3)cc2)ccn1 [sorafenib, Sorafenib]
[1]
  regression of severe bilateral leg lymphedema: complete regression
[2]; day 7 after incision, control peak 63±3 mm on day 15
  mean (±SEM) tail diameter at lymphedema peak: 58±4 mm
[2]; day 20
  resolution of tail lymphedema: complete resolution of lymphedema
[2]; day 20 after incision, control 58±3, P≦0.0003, baseline 36±1
  mean (±SEM) tail diameter on day 20: 36±1 mm
[3]; 60 mg/kg, 384 h
  mean (±SEM) OD620 of Evans blue extracted from the tail: 0.09±0.009
[3]; day 16, 60 mg/kg/die days 5 to 9 and 12 to 16
  reduction of vascular permeability vs untreated mice (extravasated Evans blue): 2 fold
[4]; end of treatment
  median reduction of total arm circumference vs pre-treatment: 60%
[4]
  reduction of body weight associated with lymphedema reduction: 5-10%
[4]; no dose reduction or discontinuation due to toxicity
  tolerability: well tolerated
